From ChEMBL document CHEMBL3046749, “Synthesis and antimicrobial activity of novel bis-azaphenothiazines” (2013)
≈ marks a conversion by molar mass, not a printed value.

Tests used:
Type in all cases: functional
[1] = test system: Klebsiella pneumoniae; experiment: Antibacterial activity against Klebsiella pneumoniae MTCC 432 after 16 hr by cup-plate method; details: MTCC 432, 16 h
[2] = test system: Bacillus subtilis; experiment: Antibacterial activity against Bacillus subtilis MTCC 441 after 16 hr by cup-plate method; details: MTCC 441, 16 h
[3] = test system: Pseudomonas aeruginosa; experiment: Antibacterial activity against Pseudomonas aeruginosa MTCC 424 at 100 ug/ml after 16 to 18 hr by cup-plate method; details: read-out: IZ
[4] = test system: Staphylococcus aureus; experiment: Antibacterial activity against Staphylococcus aureus MTCC 096 after 16 hr by cup-plate method; details: MTCC 096, 16 h
[5] = test system: Salmonella typhi; experiment: Antibacterial activity against Salmonella enterica subsp. enterica serovar Typhi MTCC 733 after 16 hr by cup-plate method; details: MTCC 733, 16 h
[6] = test system: Staphylococcus epidermidis; experiment: Antibacterial activity against Staphylococcus epidermidis MTCC 435 at 100 ug/ml after 16 to 18 hr by cup-plate method; details: read-out: IZ
[7] = test system: Bacillus subtilis; experiment: Antibacterial activity against Bacillus subtilis MTCC 441 at 100 ug/ml after 16 to 18 hr by cup-plate method; details: read-out: IZ
[8] = test system: Salmonella typhi; experiment: Antibacterial activity against Salmonella enterica subsp. enterica serovar Typhi MTCC 733 at 100 ug/ml after 16 to 18 hr by cup-plate method; details: read-out: IZ
[9] = test system: Pseudomonas aeruginosa; experiment: Antibacterial activity against Pseudomonas aeruginosa MTCC 424 after 16 hr by cup-plate method; details: MTCC 424, 16 h
[10] = test system: Staphylococcus aureus; experiment: Antibacterial activity against Staphylococcus aureus MTCC 096 at 100 ug/ml after 16 to 18 hr by cup-plate method; details: read-out: IZ
[11] = test system: Escherichia coli; experiment: Antibacterial activity against Escherichia coli MTCC 443 after 16 hr by cup-plate method; details: MTCC 443, 16 h
[12] = test system: Staphylococcus epidermidis; experiment: Antibacterial activity against Staphylococcus epidermidis MTCC 435 after 16 hr by cup-plate method; details: MTCC 435, 16 h
[13] = test system: Klebsiella pneumoniae; experiment: Antibacterial activity against Klebsiella pneumoniae MTCC 432 at 100 ug/ml after 16 to 18 hr by cup-plate method; details: read-out: IZ
[14] = test system: Candida albicans; experiment: Antifungal activity against Candida albicans MTCC 227 after 28 to 30 hr by cup-plate method
[15] = test system: Aspergillus fumigatus; experiment: Antifungal activity against Aspergillus fumigatus MTCC 343 after 28 to 30 hr by cup-plate method
[16] = test system: Aspergillus flavus; experiment: Antifungal activity against Aspergillus flavus MTCC 277 at 100 ug/ml after 28 to 30 hr by cup-plate method; details: read-out: IZ
[17] = test system: Aspergillus fumigatus; experiment: Antifungal activity against Aspergillus fumigatus MTCC 343 at 100 ug/ml after 28 to 30 hr by cup-plate method; details: read-out: IZ
[18] = test system: Escherichia coli; experiment: Antibacterial activity against Escherichia coli MTCC 443 at 100 ug/ml after 16 to 18 hr by cup-plate method; details: read-out: IZ
[19] = test system: Aspergillus niger; experiment: Antifungal activity against Aspergillus niger MTCC 282 after 28 to 30 hr by cup-plate method
[20] = test system: Aspergillus niger; experiment: Antifungal activity against Aspergillus niger MTCC 282 at 100 ug/ml after 28 to 30 hr by cup-plate method; details: read-out: IZ
[21] = test system: Aspergillus flavus; experiment: Antifungal activity against Aspergillus flavus MTCC 277 after 28 to 30 hr by cup-plate method
[22] = test system: Candida albicans; experiment: Antifungal activity against Candida albicans MTCC 227 at 100 ug/ml after 28 to 30 hr by cup-plate method; details: read-out: IZ

Question: Which results are given for `O=C(O)c1cn(C2CC2)c2cc(N3CCNCC3)c(F)cc2c1=O` [CIPROFLOXACIN]?
Answer: MIC [1]: 6.25 µg/mL (≈ 18.9 µM); MIC [2]: 6.25 µg/mL (≈ 18.9 µM); zone of inhibition at 100 µg/mL [3]: 18 mm; MIC [4]: 6.25 µg/mL (≈ 18.9 µM); MIC [5]: 6.25 mM (≈ 2070 µg/mL); zone of inhibition at 100 µg/mL [6]: 16 mm; zone of inhibition at 100 µg/mL [7]: 18 mm; zone of inhibition at 100 µg/mL [8]: 19 mm; MIC [9]: 6.25 µg/mL (≈ 18.9 µM); zone of inhibition at 100 µg/mL [10]: 19 mm; MIC [11]: 6.25 µg/mL (≈ 18.9 µM); MIC [12]: 6.25 µg/mL (≈ 18.9 µM); zone of inhibition at 100 µg/mL [13]: 17 mm

Question: Which MIC [14] does the source give for `C(=C\CN1c2ccccc2Sc2cccnc21)/CN1c2ccccc2Sc2cccnc21` here?
Answer: The MIC was 12.5 µg/mL (≈ 27.6 µM).

Question: What about the MIC [1] of the same compound?
Answer: The MIC was 50 µg/mL (≈ 110 µM).

Question: What about the MIC [2] of the same compound?
Answer: Its MIC is over 50 µg/mL.

Question: And the zone of inhibition at 100 µg/mL [3]?
Answer: Its zone of inhibition at 100 µg/mL is 12 mm.

Question: And the MIC [4]?
Answer: Its MIC is 12.5 µg/mL (≈ 27.6 µM).

Question: And the MIC [15]?
Answer: Its MIC is 6.25 µg/mL (≈ 13.8 µM).

Question: And the zone of inhibition at 100 µg/mL [16]?
Answer: The zone of inhibition at 100 µg/mL was 12 mm.

Question: What about the zone of inhibition at 100 µg/mL [6] of the same compound?
Answer: The zone of inhibition at 100 µg/mL was 10 mm.

Question: What about the zone of inhibition at 100 µg/mL [17] of the same compound?
Answer: The zone of inhibition at 100 µg/mL was 13 mm.

Question: And the zone of inhibition at 100 µg/mL [7]?
Answer: The zone of inhibition at 100 µg/mL was 10 mm.

Question: And the zone of inhibition at 100 µg/mL [18]?
Answer: Its zone of inhibition at 100 µg/mL is 11 mm.

Question: And the MIC [19]?
Answer: Its MIC is 12.5 µg/mL (≈ 27.6 µM).

Question: And the zone of inhibition at 100 µg/mL [8]?
Answer: The zone of inhibition at 100 µg/mL was 11 mm.

Question: What about the zone of inhibition at 100 µg/mL [20] of the same compound?
Answer: Its zone of inhibition at 100 µg/mL is 12 mm.

Question: What about the MIC [21] of the same compound?
Answer: The MIC was 12.5 µg/mL (≈ 27.6 µM).

Question: What about the zone of inhibition at 100 µg/mL [22] of the same compound?
Answer: The zone of inhibition at 100 µg/mL was 12 mm.

Question: And the MIC [9]?
Answer: The MIC was 12.5 µg/mL (≈ 27.6 µM).

Question: What about the zone of inhibition at 100 µg/mL [10] of the same compound?
Answer: The zone of inhibition at 100 µg/mL was 12 mm.

Question: And the MIC [11]?
Answer: The MIC was 50 µg/mL (≈ 110 µM).

Question: What about the MIC [12] of the same compound?
Answer: The MIC was over 50 µg/mL.

Question: What about the zone of inhibition at 100 µg/mL [13] of the same compound?
Answer: Its zone of inhibition at 100 µg/mL is 11 mm.

Question: Which MIC [14] does the source give for `CC(=O)Nc1ccc(Br)cc1Sc1ncccc1[N+](=O)[O-]` here?
Answer: Its MIC is 6.25 µg/mL (≈ 17 µM).

Question: And the MIC [1]?
Answer: The MIC was 6.25 µg/mL (≈ 17 µM).

Question: And the MIC [2]?
Answer: The MIC was 25 µg/mL (≈ 67.9 µM).

Question: What about the zone of inhibition at 100 µg/mL [3] of the same compound?
Answer: Its zone of inhibition at 100 µg/mL is 14 mm.

Question: And the MIC [4]?
Answer: Its MIC is 25 µg/mL (≈ 67.9 µM).

Question: What about the MIC [15] of the same compound?
Answer: Its MIC is 6.25 µg/mL (≈ 17 µM).

Question: And the zone of inhibition at 100 µg/mL [16]?
Answer: Its zone of inhibition at 100 µg/mL is 12 mm.

Question: What about the zone of inhibition at 100 µg/mL [6] of the same compound?
Answer: The zone of inhibition at 100 µg/mL was 13 mm.

Question: And the zone of inhibition at 100 µg/mL [17]?
Answer: Its zone of inhibition at 100 µg/mL is 14 mm.

Question: What about the zone of inhibition at 100 µg/mL [7] of the same compound?
Answer: The zone of inhibition at 100 µg/mL was 12 mm.

Question: What about the zone of inhibition at 100 µg/mL [18] of the same compound?
Answer: The zone of inhibition at 100 µg/mL was 11 mm.

Question: What about the MIC [19] of the same compound?
Answer: The MIC was 6.25 µg/mL (≈ 17 µM).

Question: And the zone of inhibition at 100 µg/mL [8]?
Answer: Its zone of inhibition at 100 µg/mL is 11 mm.

Question: What about the zone of inhibition at 100 µg/mL [20] of the same compound?
Answer: The zone of inhibition at 100 µg/mL was 16 mm.

Question: And the MIC [21]?
Answer: The MIC was 12.5 µg/mL (≈ 33.9 µM).

Question: What about the zone of inhibition at 100 µg/mL [22] of the same compound?
Answer: Its zone of inhibition at 100 µg/mL is 13 mm.

Question: What about the MIC [9] of the same compound?
Answer: The MIC was 6.25 µg/mL (≈ 17 µM).

Question: And the zone of inhibition at 100 µg/mL [10]?
Answer: Its zone of inhibition at 100 µg/mL is 12 mm.

Question: What about the MIC [11] of the same compound?
Answer: Its MIC is over 50 µg/mL.

Question: What about the MIC [12] of the same compound?
Answer: The MIC was 6.25 µg/mL (≈ 17 µM).

Question: And the zone of inhibition at 100 µg/mL [13]?
Answer: The zone of inhibition at 100 µg/mL was 13 mm.

Question: What does the source list for `Fc1ccc2c(c1)Sc1cccnc1N2CCCCCCN1c2ccc(F)cc2Sc2cccnc21`?
Answer: MIC [14]: 6.25 µg/mL (≈ 12.1 µM); MIC [1]: 50 µg/mL (≈ 96.4 µM); MIC [2]: 25 µg/mL (≈ 48.2 µM); zone of inhibition at 100 µg/mL [3]: 13 mm; MIC [4]: 25 µg/mL (≈ 48.2 µM); MIC [15]: 25 µg/mL (≈ 48.2 µM); zone of inhibition at 100 µg/mL [16]: 12 mm; zone of inhibition at 100 µg/mL [6]: 12 mm; zone of inhibition at 100 µg/mL [17]: 11 mm; zone of inhibition at 100 µg/mL [7]: 12 mm; zone of inhibition at 100 µg/mL [18]: 12 mm; MIC [19]: 50 µg/mL (≈ 96.4 µM); zone of inhibition at 100 µg/mL [8]: 12 mm; zone of inhibition at 100 µg/mL [20]: 10 mm; MIC [21]: 12.5 µg/mL (≈ 24.1 µM); zone of inhibition at 100 µg/mL [22]: 13 mm; MIC [9]: 6.25 µg/mL (≈ 12.1 µM); zone of inhibition at 100 µg/mL [10]: 12 mm; MIC [11]: 12.5 µg/mL (≈ 24.1 µM); MIC [12]: 12.5 µg/mL (≈ 24.1 µM); zone of inhibition at 100 µg/mL [13]: 11 mm
